Assay results reported in patent publication US7491819B1 (priority 2004, dated 2009).

These compounds were tested against T1, HIV-integrase (Human immunodeficiency virus type 1 group M subtype B, UniProt P12497) (assay: HIV-Integrase Inhibition Activity (SPA bead strand-transfer assay)). Settings: Table 1; read-out: Activity (HIV-integrase inhibition, IC50 class).
T1 construct: Recombinant integrase (0.26 ng) was incubated with the beads
Assay type: biochemical
Method: HIV-Integrase Inhibition Activity. To evaluate in-vitro activity against HIV-integrase, 5 pmole of biotin labeled substrate DNA was bound to 100 μg of Streptavidin coated PVT SPA beads (Amersham Pharmacia Biotech). Recombinant integrase (0.26 ng) was incubated with the beads for 90 min at 37° C. Unbound enzyme was removed by washing the complex followed by addition of inhibitors and 0.1 fmol of P33 labeled target DNA. The reaction was stopped by adding EDTA to a final concentration of 10 mM. Samples were counted in TopCountNXT (Packard) and the CPM was used as a measure of integration. The reaction condition was as described in A. Engelman and R. Craigie, J. Virol 69, 5908-5911 (1995). The sequences of substrate and target DNA were described in Nucleic Acid Research 22, 1121-1122 (1994).

CC1(C)OCCn2c1nc(C(=O)NCc1ccc(F)cc1N)c(O)c2=O [Example 134, Pyrimido[2,1-c][1,4]oxazine-2-carboxamide, N-[(2-amino-4-fluorophenyl)methyl]-4,6,7,9-tetrahydro-3-hydroxy-9,9-dimethyl-4-oxo-] and CSc1cc(F)ccc1CNC(=O)c1nc2n(c(=O)c1O)CCOC2(C)C [Example 100, Pyrimido[2,1-c][1,4]oxazine-2-carboxamide, N-[[4-fluoro-2-(methylthio)phenyl]methyl]-4,6,7,9-tetrahydro-3-hydroxy-9,9-dimethyl-4-oxo-] fall in the same range of IC50: 2 to 100 nM for the first, 2 to 100 nM for the second.

CC1(C)OCCn2c1nc(C(=O)NCc1ccc(F)cc1S(=O)(=O)N1CCC1)c(O)c2=O [Example 111, Pyrimido[2,1-c][1,4]oxazine-2-carboxamide, N-[[2-(1-azetidinylsulfonyl)-4-fluorophenyl]methyl]-4,6,7,9-tetrahydro-3-hydroxy-9,9-dimethyl-4-oxo-] and CC1(C)OCCn2c1nc(C(=O)NCc1ccc(F)cc1N1CCOC1=O)c(O)c2=O [Example 127, N-(4-Fluoro-2-(2-oxooxazolidin-3-yl)benzyl)-3-hydroxy-9,9-dimethyl-4-oxo-4,6,7,9-tetrahydropyrimido[2,1-c][1,4]oxazine-2-carboxamide] fall in the same range of IC50: 2 to 100 nM for the first, 2 to 100 nM for the second.

CCC1(CC)OCCn2c1nc(C(=O)NCc1ccc(F)cc1S(C)(=O)=O)c(O)c2=O [Example 203, Pyrimido[2,1-c][1,4]oxazine-2-carboxamide, 9,9-diethyl-N-[[4-fluoro-2-(methylsulfonyl)phenyl]methyl]-4,6,7,9-tetrahydro-3-hydroxy-4-oxo-] and CC1(C)OCCn2c1nc(C(=O)NCc1ccccc1S(C)(=O)=O)c(O)c2=O [Example 114, Pyrimido[2,1-c][1,4]oxazine-2-carboxamide, 4,6,7,9-tetrahydro-3-hydroxy-9,9-dimethyl-N-[[2-(methylsulfonyl)phenyl]methyl]-4-oxo-] fall in the same range of IC50: 2 to 100 nM for the first, 2 to 100 nM for the second.

Compared with COCc1ccc(-c2ccccc2CNC(=O)c2nc3n(c(=O)c2O)CCOC3(C)C)cc1 [Example 181, Pyrimido[2,1-c][1,4]oxazine-2-carboxamide, 4,6,7,9-tetrahydro-3-hydroxy-N-[[4′-(methoxymethyl)[1,1′-biphenyl]-2-yl]methyl]-9,9-dimethyl-4-oxo-], CC1(C)OCCn2c1nc(C(=O)NCc1ccccc1-c1ccc(C#N)cc1)c(O)c2=O [Example 166, Pyrimido[2,1-c][1,4]oxazine-2-carboxamide, N-[(4′-cyano[1,1′-biphenyl]-2-yl)methyl]-4,6,7,9-tetrahydro-3-hydroxy-9,9-dimethyl-4-oxo-] is higher in IC50: 2 to 100 nM for the first, 100 to 1000 nM for the second.

CC1(C)OCCn2c1nc(C(=O)NCc1ccc(O)cc1)c(O)c2=O [Example 259, Pyrimido[2,1-c][1,4]oxazine-2-carboxamide, 4,6,7,9-tetrahydro-3-hydroxy-N-[(4-hydroxyphenyl)methyl]-9,9-dimethyl-4-oxo-] and CC1(C)OCCn2c1nc(C(=O)NCc1cccc(F)c1)c(O)c2=O [Example 220, Pyrimido[2,1-c][1,4]oxazine-2-carboxamide, N-[(3-fluorophenyl)methyl]-4,6,7,9-tetrahydro-3-hydroxy-9,9-dimethyl-4-oxo-] fall in the same range of IC50: 2 to 100 nM for the first, 2 to 100 nM for the second.

COc1ncc(-c2ccccc2CNC(=O)c2nc3n(c(=O)c2O)CCOC3(C)C)cc1Cl [Example 193, Pyrimido[2,1-c][1,4]oxazine-2-carboxamide, N-[[2-(5-chloro-6-methoxy-3-pyridinyl)phenyl]methyl]-4,6,7,9-tetrahydro-3-hydroxy-9,9-dimethyl-4-oxo-] and COc1cccc(-c2ccccc2CNC(=O)c2nc3n(c(=O)c2O)CCOC3(C)C)c1 [Example 164, Pyrimido[2,1-c][1,4]oxazine-2-carboxamide, 4,6,7,9-tetrahydro-3-hydroxy-N-[(3′-methoxy[1,1′-biphenyl]-2-yl)methyl]-9,9-dimethyl-4-oxo-] fall in the same range of IC50: 2 to 100 nM for the first, 2 to 100 nM for the second.

CC1(C)OCCn2c1nc(C(=O)NCc1ccc(F)cc1-c1ccc[nH]c1=O)c(O)c2=O [Example 78, Pyrimido[2,1-c][1,4]oxazine-2-carboxamide, N-[[2-(1,2-dihydro-2-oxo-3-pyridinyl)-4-fluorophenyl]methyl]-4,6,7,9-tetrahydro-3-hydroxy-9,9-dimethyl-4-oxo-] and Cc1ncn(-c2cc(F)ccc2CNC(=O)c2nc3n(c(=O)c2O)CCOC3(C)C)n1 [Example 81, Pyrimido[2,1-c][1,4]oxazine-2-carboxamide, N-[[4-fluoro-2-(3-methyl-1H-1,2,4-triazol-1-yl)phenyl]methyl]-4,6,7,9-tetrahydro-3-hydroxy-9,9-dimethyl-4-oxo-] fall in the same range of IC50: 2 to 100 nM for the first, 2 to 100 nM for the second.

CC1(C)OCCn2c1nc(C(=O)NCc1ccccc1N1CCOCC1)c(O)c2=O [Example 260, Pyrimido[2,1-c][1,4]oxazine-2-carboxamide, 4,6,7,9-tetrahydro-3-hydroxy-9,9-dimethyl-N-[[2-(4-morpholinyl)phenyl]methyl]-4-oxo-] and CC(C)Oc1ccccc1CNC(=O)c1nc2n(c(=O)c1O)CCOC2(C)C [Example 262, Pyrimido[2,1-c][1,4]oxazine-2-carboxamide, 4,6,7,9-tetrahydro-3-hydroxy-9,9-dimethyl-N-[[2-(1-methylethoxy)phenyl]methyl]-4-oxo-] fall in the same range of IC50: 2 to 100 nM for the first, 2 to 100 nM for the second.

CN(CCO)C(=O)c1ncn(-c2cc(F)ccc2CNC(=O)c2nc3n(c(=O)c2O)CCOC3(C)C)n1 [Example 67, Pyrimido[2,1-c][1,4]oxazine-2-carboxamide, N-[[4-fluoro-2-[3-[[(2-hydroxyethyl)methylamino]carbonyl]-1H-1,2,4-triazol-1-yl]phenyl]methyl]-4,6,7,9-tetrahydro-3-hydroxy-9,9-dimethyl-4-oxo-] and CC1(C)OCCn2c1nc(C(=O)NCc1ccc(F)cc1-n1cnc(C(=O)NCCO)n1)c(O)c2=O [Example 72, Pyrimido[2,1-c][1,4]oxazine-2-carboxamide, N-[[4-fluoro-2-[3-[[(2-hydroxyethyl)amino]carbonyl]-1H-1,2,4-triazol-1-yl]phenyl]methyl]-4,6,7,9-tetrahydro-3-hydroxy-9,9-dimethyl-4-oxo-] fall in the same range of IC50: 2 to 100 nM for the first, 2 to 100 nM for the second.

CC1(C)OCCn2c1nc(C(=O)NCc1cccc(C3(C(F)(F)F)N=N3)c1)c(O)c2=O [Example 105, Pyrimido[2,1-c][1,4]oxazine-2-carboxamide, 4,6,7,9-tetrahydro-3-hydroxy-9,9-dimethyl-4-oxo-N-[[3-[3-(trifluoromethyl)-3H-diazirin-3-yl]-phenyl]methyl]-] and CC1(C)OCCn2c1nc(C(=O)NCc1ccc(F)c(F)c1)c(O)c2=O [Example 33, Pyrimido[2,1-c][1,4]oxazine-2-carboxamide, N-[(3,4-difluorophenyl)methyl]-4,6,7,9-tetrahydro-3-hydroxy-9,9-dimethyl-4-oxo-] fall in the same range of IC50: 2 to 100 nM for the first, 2 to 100 nM for the second.

CN(C)CCNC(=O)c1cccc(-c2ccccc2CNC(=O)c2nc3n(c(=O)c2O)CCOC3(C)C)c1 [Example 195, Pyrimido[2,1-c][1,4]oxazine-2-carboxamide, N-[[3′-[[[2-(dimethylamino)ethyl]amino]carbonyl][1,1′-bzphenyl]-2-yl]methyl]-4,6,7,9-tetrahydro-3-hydroxy-9,9-dimethyl-4-oxo-] and Cc1ccc(CNC(=O)c2nc3n(c(=O)c2O)CCOC3(C)C)cc1C [Example 31, Pyrimido[2,1-c][1,4]oxazine-2-carboxamide, N-[(3,4-dimethylphenyl)methyl]-4,6,7,9-tetrahydro-3-hydroxy-9,9-dimethyl-4-oxo-] fall in the same range of IC50: 2 to 100 nM for the first, 2 to 100 nM for the second.
